Laboratory results: the NIST ThermoML archive (doi:10.1021/acs.jced.7b00039)

Assay: wn = mass fraction of the nth substance listed
Conditions: 100 kPa, Liquid; for viscosity: Cone and plate viscometry; for mass density: Vibrating tube method

CC(CC(C)(C)C)CP(=O)([O-])CC(C)CC(C)(C)C.CCCCCCCCCCCCCC[P+](CCCCCC)(CCCCCC)CCCCCC + CCCC(=O)O
Conditions | mass density, 298 K [kg/m3] | mass density, 310 K [kg/m3] | mass density, 318 K [kg/m3] | viscosity, 298 K [mPa·s] | viscosity, 310 K [mPa·s] | viscosity, 318 K [mPa·s]
w2 = 0 | 884.09 | 876.93 | 872.2 | 1023 | 521 | 345
w2 = 0.0122 | 886.44 | 879.26 | 874.5 | 952 | 465 | 304
w2 = 0.0346 | 892.23 | 884.71 | 879.8 | 785 | 389 | 257
w2 = 0.0349 | 889.81 | 882.5 | 877.64 | 787 | 388 | 255
w2 = 0.0684 | 893.84 | 886.39 | 881.5 | 562 | 278 | 185
w2 = 0.14 | 899.77 | 892.33 | 887.48 | 348 | 181 | 123
w2 = 0.242 | 909.13 | 901.49 | 896.4 | 216 | 118 | 82.2
w2 = 0.301 | 914.05 | 906.22 | 901 | 159 | 87.9 | 62.1
w2 = 0.375 | 919.8 | 911.62 | 906.17 | 92.7 | 53.5 | 38.9
w2 = 0.44 | 924.13 | 915.64 | 909.99 | 56.9 | 34.4 | 25.5
w2 = 0.491 | 927.26 | 918.52 | 912.71 | 38.8 | 24.6 | 18.8
w2 = 0.715 | 939.25 | 929.27 | 922.63 | 7.55 | 5.51 | 4.56
w2 = 0.991 | 953.5 | 941.63 | 933.77 | 1.69 | 1.39 | 1.23
